Entries after “also recorded” stand apart in the source; their conditions may differ.

This is an account of results in PMC6150216, “Oleanane-Type Saponins from the Roots of Ligulariopsis shichuana and Their α-Glucosidase Inhibitory Activities” (Molecules : A Journal of Synthetic Chemistry and Natural …, 2017).

One assay has as its target yeast α-glucosidase. Nature of the assay: α-Glucosidase inhibitory activity assay. The assay is classed as biochemical. Conditions: for IC50: compound concentration that inhibits α-glucosidase activity by 50%, acarbose positive control, read-out: IC50 against α-glucosidase; for α-glucosidase inhibitory activity (in words): qualitative statement. The text has this:
α-Glucosidase inhibitory activity was examined by the method described by Omar et al..

For another assay, the system named is glucose-loaded rats. Set-up: method as in PMID 11237187. Conditions: cited from earlier work.

In the case of `CC1(C)CC[C@]2(C=O)[C@@H](O)C[C@]3(C)C(=CC[C@@H]4[C@@]5(C)CC[C@H](O[C@@H]6O[C@H](C(=O)O)[C@@H](O)[C@H](O)[C@H]6O)C(C)(C)[C@@H]5CC[C@]43C)[C@@H]2C1` [Compound 1, Ligushicoside A], at yeast α-glucosidase, the IC50 – broadly, the concentration that inhibits the measured activity by half – turned out to be 18.7 ± 1.7 µM and the “α-glucosidase inhibitory activity (in words)” value was “excellent inhibitory activities; also recorded: excellent inhibitory activity”.
As to `COC(=O)[C@H]1O[C@@H](O[C@H]2CC[C@]3(C)[C@H]4CC=C5[C@@H]6CC(C)(C)CC[C@]6(C=O)[C@@H](O)C[C@@]5(C)[C@]4(C)CC[C@H]3C2(C)C)[C@H](O)[C@@H](O)[C@@H]1O` [Compound 2, Ligushicoside B], on yeast α-glucosidase, the IC50 turned out to be 37.9 ± 3.6 µM and the “α-glucosidase inhibitory activity (in words)” value is “excellent inhibitory activities; also recorded: excellent inhibitory activity”.
In the case of `COC(=O)[C@H]1O[C@@H](O[C@H]2CC[C@]3(C)[C@H]4CC=C5[C@@H]6CC(C)(C)CC[C@]6(C)[C@@H](O)C[C@@]5(C)[C@]4(C)C[C@@H](O)[C@H]3C2(C)C)[C@H](O)[C@@H](O)[C@@H]1O` [Compound 3, Ligushicoside C], on yeast α-glucosidase, the IC50 came out at 105 ± 4.3 µM.
Still for that read-out and setting: the figure for `COC(=O)[C@H]1O[C@@H](O[C@H]2CC[C@]3(C)[C@H]4CC=C5[C@@H]6CC(C)(C)CC[C@]6(CO)[C@@H](O)C[C@@]5(C)[C@]4(C)C[C@@H](O)[C@H]3C2(C)C)[C@H](O)[C@@H](O)[C@@H]1O` [Compound 4, Ligushicoside D] is 89.7 ± 5.1 µM; for `COC(=O)[C@H]1O[C@@H](O[C@H]2CC[C@]3(C)[C@H]4CC=C5[C@@H]6CC(C)(C)CC[C@]6(CO)[C@@H](O)C[C@@]5(C)[C@]4(C)CC[C@H]3C2(C)C)[C@H](O)[C@@H](O)[C@@H]1O` [Compound 5, Ligushicoside E] it is 154 ± 11.2 µM; for `CC1(C)CC[C@]2(CO)[C@@H](O)C[C@]3(C)C(=CC[C@@H]4[C@@]5(C)CC[C@H](O[C@@H]6O[C@H](C(=O)O)[C@@H](O)[C@H](O)[C@H]6O)C(C)(C)[C@@H]5CC[C@]43C)[C@@H]2C1` [Compound 6, longispinogenin 3-O-β-D-glucuronopyranoside] it is 42.6 ± 5.9 µM.
For the compound `CC1(C)CC[C@]2(C(=O)O)CC[C@]3(C)C(=CC[C@@H]4[C@@]5(C)CC[C@H](O[C@@H]6O[C@H](C(=O)O)[C@@H](O)[C@H](O)[C@H]6O)C(C)(C)[C@@H]5CC[C@]43C)[C@@H]2C1` [Compound 7, calenduloside E], the IC50 on yeast α-glucosidase came to 57.6 ± 6.8 µM. Also, the “effect on the incensement of serum glucose levels” value with glucose-loaded rats is given as “significant effects; also recorded: strongly inhibited”.
Regarding `COC(=O)[C@H]1O[C@@H](O[C@H]2CC[C@]3(C)[C@H]4CC=C5[C@@H]6CC(C)(C)CC[C@]6(C(=O)O)CC[C@@]5(C)[C@]4(C)CC[C@H]3C2(C)C)[C@H](O)[C@@H](O)[C@@H]1O` [Compound 8, calenduloside E 6′-methyl ester], on yeast α-glucosidase, the 50% inhibitory concentration (IC50) amounted to 134 ± 3.3 µM. Further, the “effect on the incensement of serum glucose levels” value with glucose-loaded rats is given as “significant effects”.
